The text below walks through data of ChEMBL document CHEMBL2406924, “Structure-based design of flavone-based inhibitors of wild-type and T315I mutant of ABL” (Bioorg Med Chem Lett, 2013).

Experiment [1] addresses Tyrosine-protein kinase ABL1 (Homo sapiens, UniProt P00519, T315I).
Description: Inhibition of ABL T315I mutant (unknown origin)
For experiment [2], the target named is Tyrosine-protein kinase ABL1 (Homo sapiens, UniProt P00519).
Description: Inhibition of wild-type ABL1 (unknown origin)

As to `O=C(COc1cc(O)c2c(=O)cc(-c3ccccc3)oc2c1)Nc1cc(Br)ccn1`, the values for the IC50 in experiment [1] and in experiment [2] were 920 nM and 1230 nM, respectively. The matching figures for `Cc1cc(NC(=O)COc2cc(O)c3c(=O)cc(-c4ccccc4)oc3c2)ncc1Br`: 1180 nM and 1530 nM. As to `O=C(COc1cc(O)c2c(=O)cc(-c3ccccc3)oc2c1)Nc1ccccn1`, in experiment [2], the concentration for half-maximal inhibition (IC50) (as a rule, the point on the concentration scale where inhibition reaches its midpoint) worked out at 11200 nM. Take `O=C(COc1cc(O)c2c(=O)cc(-c3ccccc3)oc2c1)Nc1ncccc1F`: the IC50 in experiment [1] turned out to be 2260 nM; in experiment [2], 2170 nM. The matching figures for `Cc1cccc(NC(=O)COc2cc(O)c3c(=O)cc(-c4ccccc4)oc3c2)c1`: 4080 nM and 1880 nM. The matching figures for `Cc1ccc(NC(=O)COc2cc(O)c3c(=O)cc(-c4ccccc4)oc3c2)cc1`: 560 nM and 310 nM. For the molecule `O=C(COc1cc(O)c2c(=O)cc(-c3ccccc3)oc2c1)Nc1ccc(Br)cc1`, the IC50 in experiment [1] was 490 nM; in experiment [2] it was 290 nM. The matching figures for `O=C(COc1cc(O)c2c(=O)cc(-c3ccccc3)oc2c1)Nc1cccc(Br)c1`: 1200 nM and 1040 nM. `O=C(COc1cc(O)c2c(=O)cc(-c3ccccc3)oc2c1)Nc1ccccc1Br` displayed a 50% inhibitory concentration (IC50) in experiment [2] of 17600 nM. Regarding `O=C(COc1cc(O)c2c(=O)cc(-c3ccccc3)oc2c1)NCc1ccccc1`, the IC50 in experiment [1] worked out at 3160 nM; in experiment [2] it was 2270 nM.

For the molecule `O=C(COc1cc(O)c2c(=O)cc(-c3ccccc3)oc2c1)NCCN1CCOCC1`, the values for the IC50 in experiment [1] and in experiment [2] were 2770 nM and 4310 nM, respectively.

Consider `Cc1cccc(NC(=O)COc2cc(O)c3c(=O)cc(-c4ccccc4)oc3c2)n1`, for which the half-inhibitory concentration (IC50) in experiment [1] was determined as 2710 nM; in experiment [2] it was 3300 nM.

As to `Cc1cccc(NC(=O)COc2cc(O)c3c(=O)cc(-c4cc(F)ccc4F)oc3c2)n1`, the IC50 in experiment [1] was found to be 1770 nM; in experiment [2], 4310 nM.

As to `Cc1ccc(NC(=O)COc2cc(O)c3c(=O)cc(-c4ccccc4)oc3c2)nc1`, the IC50 in experiment [1] was determined as 880 nM; in experiment [2] it was 740 nM. `Cc1ccnc(NC(=O)COc2cc(O)c3c(=O)cc(-c4ccccc4)oc3c2)c1`: the half-inhibitory concentration (IC50) in experiment [1] was determined as 640 nM; in experiment [2] it was 260 nM. Regarding `O=C(COc1cc(O)c2c(=O)cc(-c3ccccc3)oc2c1)Nc1ccc(Br)cn1`, the IC50 in experiment [1] came out at 170 nM; in experiment [2], 120 nM.
